The values below come from article PMC6391970, “Design, Synthesis and Characterization of Covalent KDM5 Inhibitors” (Angewandte Chemie (International Ed. in English), 2018).

What is called IC50 is the point on the concentration scale where inhibition reaches its midpoint.

What all share (assay type): biochemical
For one experiment, the target named is T1, KDM4B (Homo sapiens, UniProt O94953).
T1 sequence (O94953 1-1096): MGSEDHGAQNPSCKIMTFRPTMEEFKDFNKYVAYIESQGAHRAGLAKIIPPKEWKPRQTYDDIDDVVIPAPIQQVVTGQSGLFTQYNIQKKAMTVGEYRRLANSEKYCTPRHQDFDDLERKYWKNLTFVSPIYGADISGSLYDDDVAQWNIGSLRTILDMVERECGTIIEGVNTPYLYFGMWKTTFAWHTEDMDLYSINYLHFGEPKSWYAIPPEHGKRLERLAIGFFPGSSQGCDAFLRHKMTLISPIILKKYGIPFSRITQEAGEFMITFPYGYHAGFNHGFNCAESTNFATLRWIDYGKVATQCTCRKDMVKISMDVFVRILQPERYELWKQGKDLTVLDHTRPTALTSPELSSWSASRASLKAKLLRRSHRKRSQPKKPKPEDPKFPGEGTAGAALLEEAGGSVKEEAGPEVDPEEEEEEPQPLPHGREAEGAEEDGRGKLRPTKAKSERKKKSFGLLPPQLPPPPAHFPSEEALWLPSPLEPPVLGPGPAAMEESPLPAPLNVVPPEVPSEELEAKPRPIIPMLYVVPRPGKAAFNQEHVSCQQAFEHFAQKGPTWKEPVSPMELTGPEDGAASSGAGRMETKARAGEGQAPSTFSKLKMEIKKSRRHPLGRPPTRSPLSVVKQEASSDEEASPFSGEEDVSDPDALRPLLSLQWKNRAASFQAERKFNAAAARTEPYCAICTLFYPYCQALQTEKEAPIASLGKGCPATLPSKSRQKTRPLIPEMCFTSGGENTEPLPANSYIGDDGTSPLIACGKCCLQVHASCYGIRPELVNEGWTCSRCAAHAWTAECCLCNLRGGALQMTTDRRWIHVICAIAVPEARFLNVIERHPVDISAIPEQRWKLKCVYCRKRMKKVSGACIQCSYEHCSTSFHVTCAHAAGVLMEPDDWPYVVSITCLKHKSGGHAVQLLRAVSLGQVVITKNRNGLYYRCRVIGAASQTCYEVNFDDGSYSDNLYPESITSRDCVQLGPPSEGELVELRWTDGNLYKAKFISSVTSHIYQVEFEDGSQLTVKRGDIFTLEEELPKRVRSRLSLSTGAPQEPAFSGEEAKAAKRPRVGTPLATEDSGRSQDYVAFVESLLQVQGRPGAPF
Nature of the experiment: KDM AlphaScreen selectivity panel, KDM4B. The conditions noted are these: for IC50: AlphaScreen after 120 min pre-incubation, read-out: KDM IC50 4B; for SI over KDM5B, 4B: KDM4B IC50/KDM5B IC50. The protocol:
(§1) A panel of JmjC KDMs was tested by AlphaScreen to determine the selectivity of the compounds (Table S2). […]
(§2) KDM alpha screen selectivity
(§3) Inhibition of histone demethylases was assessed using the histone demethylase AlphaScreen assay (Amplified Luminescence Proximity Homogenous Assay) as previously reported.[4] The basis of this assay for lysine demethylases have been widely described.[5] In brief, the assay was performed in 384-well plate format using white proxiplates (PerkinElmer), and transfer of titrations of compounds (100 nl) was performed using an ECHO 550 acoustic dispenser […]
(§4) Tween- 20) containing the appropriate demethylase enzyme (see Supplementary table 1 for final concentrations) was transferred to each well of a 384-well proxiplate with a Multidrop™ Combi Reagent Dispenser, and the enzymes allowed to pre-incubate for 120 minutes with compound (final concentration of DMSO was 1%). After that time, the enzyme reaction was initiated by addition of 5 µl of a substrate mix consisting of Ketoglutarate (2-OG), Ferrous Ammonium Sulphate (FAS), L-Ascorbic Acid (LAA) and biotinylated peptide substrate (see Supporting table X for final assay concentrations) and the reaction incubated for the indicated time at room temperature. Reaction was stopped by the addition of 5 μl of assay buffer containing EDTA (7.5 mM) and NaCl (400 mM). Streptavidin Donor beads (0.08 mg/ml) and Protein-A conjugated acceptor beads (0.08 mg/ml) (AlphaScreen General IgG detection kit was from Perkin Elmer) were pre-incubated for 1 hour with an antibody to the product methyl mark (Supplementary Table 1) and the presence of biotin-H3-product was detected by addition of 5 µl of the pre-incubated AlphaScreen beads (final concentrations of 0.02 mg/ml with respect to acceptor and donor beads). Detection was allowed to proceed for 2 hour at room temperature and the assay plates read in a BMG Labtech Pherastar FS plate reader (excitation, 680 nm; emission, 570 […]
(§5) IC50(t) = Ki (1 + K ) . ( η . k .t − 1) (1) […]
(§6) Table S4. AlphaScreen assay conditions for the KDM selectivity panel
Background: Bead proximity is the source of the signal in Alpha formats.

The target of the next experiment is KDM5C (Homo sapiens, UniProt P41229). Nature of the experiment: KDM AlphaScreen selectivity panel, KDM5C. The conditions noted are these: for IC50: AlphaScreen after 120 min pre-incubation, read-out: KDM IC50 5C; for SI over KDM5B, 5C: KDM5C IC50/KDM5B IC50. On the procedure: as §1, §2, §3, §4, §5, §6
Sequence of KDM5C (P41229 whole entry): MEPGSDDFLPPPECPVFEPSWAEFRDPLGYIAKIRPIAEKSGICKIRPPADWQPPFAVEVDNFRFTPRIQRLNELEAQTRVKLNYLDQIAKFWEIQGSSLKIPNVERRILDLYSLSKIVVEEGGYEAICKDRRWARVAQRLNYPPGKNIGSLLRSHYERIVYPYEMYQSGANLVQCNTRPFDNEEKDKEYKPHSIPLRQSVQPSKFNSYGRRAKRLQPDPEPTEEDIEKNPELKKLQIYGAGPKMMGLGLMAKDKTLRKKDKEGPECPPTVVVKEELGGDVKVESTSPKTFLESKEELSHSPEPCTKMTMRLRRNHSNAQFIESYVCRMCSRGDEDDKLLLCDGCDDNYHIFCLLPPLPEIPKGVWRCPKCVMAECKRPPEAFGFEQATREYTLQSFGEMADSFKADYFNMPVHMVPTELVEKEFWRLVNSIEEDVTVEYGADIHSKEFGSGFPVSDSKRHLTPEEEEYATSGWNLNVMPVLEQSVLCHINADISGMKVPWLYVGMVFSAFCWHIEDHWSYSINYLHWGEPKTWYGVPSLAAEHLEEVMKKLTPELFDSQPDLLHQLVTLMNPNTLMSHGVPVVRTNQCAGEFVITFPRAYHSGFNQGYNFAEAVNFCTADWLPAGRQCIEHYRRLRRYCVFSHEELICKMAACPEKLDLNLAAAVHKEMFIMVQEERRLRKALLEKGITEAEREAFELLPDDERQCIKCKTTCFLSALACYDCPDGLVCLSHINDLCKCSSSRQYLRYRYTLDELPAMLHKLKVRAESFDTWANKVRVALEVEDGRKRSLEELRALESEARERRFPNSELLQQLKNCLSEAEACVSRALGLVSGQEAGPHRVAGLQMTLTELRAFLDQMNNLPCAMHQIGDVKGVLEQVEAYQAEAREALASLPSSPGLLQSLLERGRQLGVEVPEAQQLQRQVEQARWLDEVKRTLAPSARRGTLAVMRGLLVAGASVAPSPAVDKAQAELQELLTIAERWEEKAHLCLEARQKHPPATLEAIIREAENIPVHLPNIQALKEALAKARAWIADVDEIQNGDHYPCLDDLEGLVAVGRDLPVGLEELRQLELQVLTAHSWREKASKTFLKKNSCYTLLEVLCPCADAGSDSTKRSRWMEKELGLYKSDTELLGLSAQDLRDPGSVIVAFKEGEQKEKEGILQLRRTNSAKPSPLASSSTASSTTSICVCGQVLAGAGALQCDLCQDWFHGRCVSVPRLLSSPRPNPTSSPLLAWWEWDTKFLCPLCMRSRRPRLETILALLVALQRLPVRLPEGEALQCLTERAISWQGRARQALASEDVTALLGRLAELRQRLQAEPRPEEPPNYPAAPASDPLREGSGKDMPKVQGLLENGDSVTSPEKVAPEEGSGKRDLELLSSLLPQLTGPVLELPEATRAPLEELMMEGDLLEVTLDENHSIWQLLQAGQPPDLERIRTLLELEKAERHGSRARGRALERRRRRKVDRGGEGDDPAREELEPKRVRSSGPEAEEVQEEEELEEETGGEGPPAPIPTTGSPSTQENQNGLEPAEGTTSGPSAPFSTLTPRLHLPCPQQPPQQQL
A further experiment addresses T2, KDM4C (Homo sapiens, UniProt Q9H3R0).
T2 sequence (Q9H3R0 1-1056): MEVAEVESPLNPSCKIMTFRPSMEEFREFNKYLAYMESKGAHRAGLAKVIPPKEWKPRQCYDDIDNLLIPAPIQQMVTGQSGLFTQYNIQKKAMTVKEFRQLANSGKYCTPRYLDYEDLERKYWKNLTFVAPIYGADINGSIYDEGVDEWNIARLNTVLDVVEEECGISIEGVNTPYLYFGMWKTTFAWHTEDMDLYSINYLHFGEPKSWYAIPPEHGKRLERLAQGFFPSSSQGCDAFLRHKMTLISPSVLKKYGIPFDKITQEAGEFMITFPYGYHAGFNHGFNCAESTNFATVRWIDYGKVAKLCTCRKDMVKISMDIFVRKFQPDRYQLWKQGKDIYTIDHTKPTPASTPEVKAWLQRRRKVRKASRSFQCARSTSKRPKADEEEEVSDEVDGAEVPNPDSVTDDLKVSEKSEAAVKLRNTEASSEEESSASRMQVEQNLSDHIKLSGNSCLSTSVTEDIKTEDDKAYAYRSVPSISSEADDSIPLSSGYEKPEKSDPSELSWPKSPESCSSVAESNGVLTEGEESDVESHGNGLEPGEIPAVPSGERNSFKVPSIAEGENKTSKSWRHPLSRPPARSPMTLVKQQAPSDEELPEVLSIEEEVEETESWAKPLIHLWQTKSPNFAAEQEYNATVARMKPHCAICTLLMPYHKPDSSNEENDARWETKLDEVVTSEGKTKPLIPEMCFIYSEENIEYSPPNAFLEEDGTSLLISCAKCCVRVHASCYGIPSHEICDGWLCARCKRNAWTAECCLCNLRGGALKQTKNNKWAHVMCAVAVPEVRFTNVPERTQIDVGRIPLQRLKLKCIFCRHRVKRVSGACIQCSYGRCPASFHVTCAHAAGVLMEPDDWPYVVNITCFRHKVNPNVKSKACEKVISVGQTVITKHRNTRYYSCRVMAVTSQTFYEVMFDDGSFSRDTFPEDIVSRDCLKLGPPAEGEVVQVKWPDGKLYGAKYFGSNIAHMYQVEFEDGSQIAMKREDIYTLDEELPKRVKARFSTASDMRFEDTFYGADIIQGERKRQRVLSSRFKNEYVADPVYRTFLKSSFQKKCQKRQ
Nature of the experiment: KDM AlphaScreen selectivity panel, KDM4C. The conditions noted are these: for IC50: AlphaScreen after 120 min pre-incubation, read-out: KDM IC50 4C; for SI over KDM5B, 4C: KDM4C IC50/KDM5B IC50. On the procedure:
as §1, §2, §3, §4, §5, §6

Bounds are passed on as bounds.

Consider `C=CC(=O)Nc1cccc(CN(C)CCc2cnn(-c3nccc4c(=O)[nH]cnc34)c2)c1` [Compound 4], for which the IC50 on KDM4B was determined as 1100 ± 100 nM; on KDM5C, 778 ± 37 nM; at KDM4C it was 1000 ± 300 nM.
`CN(CCc1cnn(-c2nccc3c(=O)[nH]cnc23)c1)Cc1cccc(NC(=O)CCl)c1` [Compound 5]: at KDM4B, the “selectivity over KDM4B” value was “more than 60 fold”; the IC50 was 700 ± 200 nM; the “SI over KDM5B, 4B” value is 68. For the same molecule, on KDM5C, the IC50 came out at 394 ± 11 nM and the “SI over KDM5B, 5C” value turned out to be 40. On KDM4C, the IC50 worked out at 300 ± 100 nM and the “SI over KDM5B, 4C” value was determined as 31.
On to `CN(C)C/C=C/C(=O)Nc1cccc(CN(C)CCc2cnn(-c3nccc4c(=O)[nH]cnc34)c2)c1` [Compound 6], for which the results for the IC50 on KDM4B, at KDM5C and at KDM4C were 1900 ± 100 nM, 4570 ± 341 nM and 2300 ± 100 nM, respectively.
As for `CC(C)c1c(-c2cnn(CCNC(=O)CCl)c2)[nH]c2c(C#N)cnn2c1=O` [Compound 7], on KDM4B, the “selectivity over KDM4B” value is reported as over 500 fold; the IC50 was 4100 ± 200 nM; the “SI over KDM5B, 4B” value was found to be 572. At KDM5C, the IC50 is 571 ± 34 nM and the “SI over KDM5B, 5C” value is 81. Further, on KDM4C, the IC50 came out at 1800 ± 100 nM and the “SI over KDM5B, 4C” value is reported as 253.
As to `C=CC(=O)NCCOc1ccc(-c2[nH]c3c(C#N)cnn3c(=O)c2C(C)C)cc1` [Compound 9], on KDM4B, the IC50 turned out to be 6300 ± 600 nM and the “SI over KDM5B, 4B” value amounted to 97. At KDM5C, the IC50 was 2192 ± 19 nM and the “SI over KDM5B, 5C” value stood at 34. On KDM4C, the IC50 is 3200 ± 100 nM and the “SI over KDM5B, 4C” value is on record as 49.
Turning to `C=CC(=O)N1CCC(n2cc(-c3[nH]c4c(C#N)cnn4c(=O)c3C(C)C)cn2)CC1` [Compound 10], at KDM4B, the “selectivity over KDM4B” value is given as over 500 fold; the IC50 amounted to 14200 ± 1100 nM; the “SI over KDM5B, 4B” value came out at 831. At KDM5C, the IC50 stood at 1270 ± 276 nM and the “SI over KDM5B, 5C” value was 74. On KDM4C, the IC50 stood at 4000 ± 100 nM and the “SI over KDM5B, 4C” value was 234.
Regarding `CC(C)c1c(-c2cnn(C3CCN(C(=O)CCl)CC3)c2)[nH]c2c(C#N)cnn2c1=O` [Compound 11], on KDM4B, the IC50 was 4600 ± 100 nM and the “SI over KDM5B, 4B” value is listed as 513. For the same molecule, at KDM5C, the “selectivity for KDM5B over KDM5C” value is “more than 100 fold”; the IC50 was 1040 ± 42 nM; the “SI over KDM5B, 5C” value is reported as 115. Further, on KDM4C, the IC50 is 1500 ± 100 nM and the “SI over KDM5B, 4C” value is given as 171.
